Measured values taken from US20050107289A1, “Anti-microbial peptides and compositions” (priority 2001, published 2005).
Where a name gives a salt, the structure may show the parent alone. Read-outs that look alike come from different tables or passages of the source. Non-standard residues stand in square brackets, D forms with d. Residues, ends and D or L forms follow the SMILES beside them.

Assays:
[1] = Single channel conductance in planar lipid membranes
Procedure: The ion transport properties of tetrapeptides cyclo[(β-Trp)4] and cyclo[(β-Trp-β-Leu)2], synthesized via established protocols, were studied in liposome-based assays and by single channel conductance measurements in planar lipid membranes. The observed conductance in 500 mM KCl with peptide concentrations of about […] in the subphase is 56 pS, corresponding to the rates of channel mediated K^+ transport of 1.9×10^7 ions s^−1 for both tetrapeptides.

[2] = tested on: S. aureus ATCC 33592; test: microbe, parasite or virus in culture; format: cell-based, Staphylococcus aureus; conditions: ATCC 33592
Procedure: (§1) The antimicrobial activity of the peptides was determined using a broth dilution assay essentially as descried in the guidelines of the National Committee for […] (NCCLS) [National Committee for Clinical Laboratory Standards. Methods for dilution antimicrobial susceptibility tests for bacteria that grow aerobically. Fourth edition. Approved Standard (1997). Document M7-A4. […] The microdilution method has the advantages of requiring less amount of peptide for each assay and the possibility of multiple simultaneous inoculations and was used in most studies. Several of the strains of bacteria tested are further described in Table 3.
(§2) Preparation of peptide solutions. Stock peptide solutions were prepared in 5% DMSO in aq. sucrose (9%). Determination of peptide concentrations was done by quantitative HPLC analysis using known concentrations of internal standards and/or by measuring UV absorption of tryptophane-containing peptide solutions in H2O (λ=280 εTrp: 5690). Serial 2-fold dilutions were made in the above DMSO/aq. sucrose (9%) mixture with concentrations ranging approximately 400-2 μg/ml and aliquots were dispensed in test tubes (100 μl) for the macrodilution test or in microtiter plates (20 μl) for the microdilution assays.
(§3) Inoculum preparation. Overnight cultures of different microorganisms grown in suitable media were diluted 4000 times to an approximate inoculum size of 2.5×10^5 cfu/ml.
(§4) Macrodilution method. Macrodilution methods were performed using procedures similar to those described in the National Committee for Clinical Laboratory Standards. Methods for dilution antimicrobial susceptibility tests for bacteria that grow aerobically. Fourth edition. Approved Standard (1997). Document M7-A4. (NCCLS,Villanova, Pa., 1997). Two ml aliquots of the above inoculum were dispensed to test tubes containing different peptide solutions.
(§5) Microdilution method. Microdilution methods were performed using procedures similar to those described in the National Committee for Clinical Laboratory Standards. Methods for dilution antimicrobial susceptibility tests for bacteria that grow aerobically. Fourth edition. Approved Standard (1997). Document M7-A4.

[3] = tested on: murine red blood cells; test: Red blood cell hemolysis; format: cell-based, mouse; conditions: for Hemolysis HD50: red cells of murine
Method in brief: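 Washed murine erythrocytes at 5% in saline with 10% FBS were exposed to serial peptide dilutions for 30 min at 37° C. Supernatant absorbance at 560 nm was read, with saline as 0% and 1% Triton X-100 as 100% hemolysis.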

[4] = tested on: H. influenzae ATCC 49247; test: microbe, parasite or virus in culture; format: cell-based, Hemophilus influenzae; conditions: ATCC 49247
Procedure: as §1, §2, §3, §4, §5

[5] = tested on: E. faecalis ATCC 51299; test: microbe, parasite or virus in culture; format: cell-based, Enterococcus faecalis; conditions: ATCC 51299
Procedure: as §1, §2, §3, §4, §5

[6] = tested on: vancomycin-resistant Enterococus faecalis (VRE)(ATCC 51575); format: cell-based, Enterococcus faecalis; design: key to VRE (in vitro activity): peptide concentration in μg/ml (broth dilution assay); conditions: for VRE (in vitro activity): Table 9; for VRE MIC: ATCC 51575
Method in brief: (§6)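 Broth microdilution (macrodilution in some cases) per NCCLS M7-A4; peptides 2-fold serially diluted in 5% DMSO/9% sucrose, ~400-2 μg/ml before dilution into broth; inoculum ~2.5×10^5 cfu/ml from overnight culture diluted 4000×.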

[7] = tested on: E. faecium SP180; test: microbe, parasite or virus in culture; format: cell-based, Enterococcus faecium; conditions: SP180
Procedure: as §1, §2, §3, §4, §5

[8] = tested on: S. aureus (MRSA) ATCC 33591; format: cell-based, Staphylococcus aureus; conditions: for MRSA (in vitro activity): Table 9; for MRSA MIC / S. aureus (MRSA) MIC: ATCC 33591
Method in brief: as §6

[9] = tested on: E. coli JM109(DE3); format: cell-based, Escherichia coli; conditions: JM109
Procedure: as §1, §2, §3, §4, §5

[10] = tested on: Bacillus cereus ATCC 11778; format: cell-based
Procedure: as §1, §2, §3, §4, §5

[11] = tested on: Streptococcus pneumoniae (ATCC 6301); format: cell-based
Procedure: as §1, §2, §3, §4, §5

[12] = tested on: E. coli (K12); test: microbe, parasite or virus in culture; format: cell-based, Escherichia coli; conditions: K12
Procedure: as §1, §2, §3, §4, §5

[13] = tested on: vancomycin resistant E. faecium (VREF)(ATCC 51575); test: Mouse peritonitis model, VREF protection; format: in vivo, mice; design: PD50 VREF: unit not given here
Procedure: Vancomycin resistant Enterococcus faecium (VREF) bacteria (ATCC 51575) were grown at 37° C. in 60 mL of Brain Heart Infusion medium (BHI, Difco Laboratories) with agitation for 16 hours to a stationary phase. Cells were collected by centrifugation, washed twice with saline solution and resuspended in 6 mL of saline to a theoretical O.D.650 of 9-10 (determined by taking OD.650 of 10-20 fold diluted samples and correlating it to the original concentration). This suspension was diluted 15 times in a sterilized 5% mucin (Difco) in saline to a concentration of 5-7×10^8 cfu/ml (actual inoculum size was verified by colony counts on agar plates).
(§7) Peptides of the invention were tested in mice to ascertain whether they would protect the mice against bacterial infection using procedures similar to those described in N. Frimodt-Moller et al., The Mouse Peritonitis/Sepsis Model, in Zak et al. (eds.) HANDBOOK OF ANIMAL MODELS OF INFECTION 127-37 (Academic Press 1999).
(§8) Male Balb-C mice (6 weeks old, approximately 20 g) were used in the study. Staphylococcus aureus MRSA bacteria (ATCC 33591) were grown at 37° C. with agitation for 12 hours to a stationary phase. Cells were collected by centrifugation, washed twice with saline and resuspended to an O.D.650 of 1.4. This suspension was diluted ten times with saline and resuspended to a concentration of 3-5×10^7 cfu/ml. For each peptide five groups of eight mice per group were infected I.P. with 0.5 ml of the above Staphylococcus aureus MRSA preparation (lethal dose). Forty-five minutes to an hour after infection, each group was treated with a different dose of peptide and a control group received vehicle only. Mice were monitored for fourteen days; death was defined as the end point. Median protecting doses (PD50) were calculated following the Reed and Muench method. […] For IV and SQ models peptide was administered immediately after IP infection.

[14] = tested on: S. aureus MRSA (ATCC 33591); test: Mouse peritonitis model, MRSA protection; format: in vivo, mice; design: PD50 MRSA: unit not given here
Procedure: Bacteria were prepared for in vivo using procedures similar to those as previously described. […] S. aureus MRSA bacteria (ATCC 33591) were grown at 37° C. in 5 mL of Antibiotic Medium-3 (AM-3, Difco Laboratories) with agitation for 12 hours to a stationary phase. Cells were collected by centrifugation, washed twice with saline solution and resuspended in about 10 mL of saline to an O.D.650 of 1.2. This suspension was diluted ten times in a sterilized 5% mucin (Difco) in saline to a concentration of 2-4×10^7 cfu/ml (actual inoculum size was verified by colony counts on agar plates).
as §7, §8

[15] = media c: Brain Heart Infusion (BHI)
[16] = media b: cation adjusted Meuller Hinton broth (MHBII)
[17] = media a: anti-microbial media-3 (AM-3)
[18] = Table 12, male Balb-C mice, IP infection, IP peptide
[19] = single bolus IP dose of appropriate amount, 45-60 min after infection

Compound | RBC Hemolysis (HD50) [3] | Hemolysis HD50 [3] [µg/mL] | VRE MIC [6] [µg/mL] | VRE (in vitro activity) ([6]; media a: AM-3) | MRSA MIC [8] [µg/mL] | MRSA (in vitro activity) [8, 17] | E. coli MIC [9] [µg/mL] | B. cerius MIC [10] [µg/mL] | S. pneum. MIC [11] [µg/mL] | other results
cyclo[(β-Trp)4] |  |  |  |  |  |  |  |  |  | rate of channel mediated K+ transport ([1]; 500 mM KCl): 1.9×10^7 ions s^−1; observed conductance ([1]; 500 mM KCl, peptide about 30 mM in the subphase): 56 pS; transport speed relative to gramicidin A ([1]; similar conditions): more than twice
CC(C)C[C@H]1NC(=O)[C@H](Cc2c[nH]c3ccccc23)NC(=O)[C@@H](CCCCN)NC(=O)[C@H](CO)NC(=O)[C@@H](CCCCN)NC(=O)[C@H](Cc2c[nH]c3ccccc23)NC(=O)[C@@H](CC(C)C)NC(=O)[C@H](Cc2c[nH]c3ccccc23)NC1=O [[KSKWLWLW]-HCl, D-Lys-Ser-D-Lys-Trp-D-Leu-Trp-D-Leu-Trp] (cyclo([dK]S[dK]W[dL]W[dL]W)) | 60 |  |  |  |  |  |  |  |  | S. aureus ATCC 33592 MIC [2]: 4 µg/mL; H. influenzae ATCC 49247 MIC [4]: 32 µg/mL; E. faecalis ATCC 51299 MIC [5]: 8 µg/mL; VRE (in vitro activity) [6, 15]: 9; E. faecium SP180 MIC [7]: 4 µg/mL; MRSA (in vitro activity) [8, 16]: 9
CC(C)C[C@H]1NC(=O)[C@H](Cc2c[nH]c3ccccc23)NC(=O)[C@@H](CCCNC(=N)N)NC(=O)[C@H](CCCNC(=N)N)NC(=O)[C@@H](CC(C)C)NC(=O)[C@H](Cc2c[nH]c3ccccc23)NC1=O [SEQ ID NO:115, [RRWLWL]] (cyclo(R[dR]W[dL]W[dL])) | 90 | 90 | 100 | 100 | 40 | 40 | 5 | 24 | 12 | 
CC(C)C[C@H]1NC(=O)[C@H](Cc2c[nH]c3ccccc23)NC(=O)[C@@H](CO)NC(=O)[C@H](Cc2c[nH]cn2)NC(=O)[C@@H]([C@H](C)O)NC(=O)[C@H](Cc2c[nH]c3ccccc23)NC(=O)[C@@H](CC(C)C)NC(=O)[C@H](Cc2c[nH]c3ccccc23)NC1=O [SEQ ID NO:6, cyclo-(D-Thr-His-D-Ser-Trp-D-Leu-Trp-D-Leu-Trp)] (cyclo(H[dS]W[dL]W[dL]W[dT])) | 100 |  | 100 | 100 | 100 | 100 | 100 | > 280 | 100 | S. aureus (MRSA) MIC [8]: 100 µg/mL
CC(C)C[C@H]1NC(=O)[C@H](Cc2c[nH]c3ccccc23)NC(=O)[C@@H](CCCCN)NC(=O)[C@H](CCCNC(=N)N)NC(=O)[C@@H](CCCNC(=N)N)NC(=O)[C@H](Cc2c[nH]c3ccccc23)NC(=O)[C@@H](CC(C)C)NC(=O)[C@H](Cc2c[nH]c3ccccc23)NC1=O [[RRKWLWLW]-HCl, cyclo-(D-Arg-Arg-D-Lys-Trp-D-Leu-Trp-D-Leu-Trp)] (cyclo([dR]R[dK]W[dL]W[dL]W)) | 70 |  |  |  |  |  |  |  |  | S. aureus ATCC 33592 MIC [2]: 8 µg/mL; H. influenzae ATCC 49247 MIC [4]: 32 to 64 µg/mL; E. faecalis ATCC 51299 MIC [5]: 8 to 16 µg/mL; VRE (in vitro activity) [6, 15]: 9; E. coli (K12) MIC [12]: 32 µg/mL; E. faecium SP180 MIC [7]: 4 µg/mL; MRSA (in vitro activity) [8, 16]: 9
CC(C)C[C@H]1NC(=O)[C@H](Cc2c[nH]c3ccccc23)NC(=O)[C@@H](CCCCN)NC(=O)[C@H](CCCCN)NC(=O)[C@@H](CCCCN)NC(=O)[C@H](Cc2c[nH]c3ccccc23)NC(=O)[C@@H](CC(C)C)NC(=O)[C@H](Cc2c[nH]c3ccccc23)NC1=O [SEQ ID NO:17, cyclo[-(D-Lys-Lys-D-Lys-(Trp-D-Leu)2-Trp-]] (cyclo([dK]K[dK]W[dL]W[dL]W)) | 45 |  | 40 | 40 | 10 | 10 |  | 5 | 10 | PD50 E. faecium VREF infection [13]: 13 mg/kg; PD50 VREF [13, 18]: 13; protection of mice from VREF infection [13, 19]: completely protect; PD50 S. aureus MRSA infection [14]: 7 mg/kg; PD50 protective dose where 50% of animals survive ([14]; FIG. 6, mice challenged with lethal doses of MRSA): 6 ± 2 mg/kg; PD50 MRSA [14, 18]: 7; protection of mice from MRSA infection [14, 19]: completely protect; S. aureus (MRSA) MIC [8]: 8 µg/mL
CC(C)C[C@H]1NC(=O)[C@H](CCCCN)NC(=O)[C@@H](CC(C)C)NC(=O)[C@H](Cc2c[nH]c3ccccc23)NC(=O)[C@@H](CC(C)C)NC(=O)[C@H](Cc2c[nH]c3ccccc23)NC(=O)[C@@H](CC(C)C)NC(=O)[C@H](Cc2c[nH]c3ccccc23)NC1=O [SEQ ID NO:3, cyclo[-Lys-D-Leu-(Trp-D-Leu)3]] (cyclo(K[dL]W[dL]W[dL]W[dL])) |  | 20 | 80 |  |  |  | 100 | 50 | 50 | MRSA MIC ([8]; Table 10): ppt
CC(C)C[C@H]1NC(=O)[C@H](Cc2c[nH]c3ccccc23)NC(=O)[C@@H](CCCCN)NC(=O)[C@H](CCCNC(=N)N)NC(=O)[C@@H](CCCNC(=N)N)NC(=O)[C@H](Cc2c[nH]c3ccccc23)NC(=O)[C@@H](CC(C)C)NC(=O)[C@H](CCC(=O)O)NC1=O [SEQ ID NO:109, [RRKWLELW]] (cyclo([dR]R[dK]W[dL]E[dL]W)) | 100 | 100 | 100 | 100 | 80 | 80 | 40 | 195 | 100 | 
